Test results reported in PubChem BioAssay (NCI).
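A five-concentration, 48-hour dose response in 96-well plates underlies each endpoint, interpolated linearly between surrounding concentrations. Definition used: TGI = concentration required for complete inhibition of growth.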

Experiments:
Assay in all cases: NCI tumour cell line growth inhibition, 48 h
[1] = system: MCF7 breast
[2] = system: CCRF-CEM leukemia
[3] = system: HCC-2998 colon
[4] = system: SF-268 CNS
[5] = system: HOP-18 NSCLC
[6] = system: NCI-H226 lung
[7] = system: HT29 colon
[8] = system: U251 CNS
[9] = system: DLD-1 colon
[10] = system: HCT-15 colon
[11] = system: SF-295 CNS
[12] = system: SK-MEL-5 melanoma
[13] = system: K-562 leukemia
[14] = system: IGROV1 ovarian
[15] = system: UACC-257 melanoma
[16] = system: RPMI-8226 leukemia
[17] = system: SNB-78 CNS
[18] = system: SK-MEL-28 melanoma
[19] = system: SN12C renal
[20] = system: KM12 colon
[21] = system: SW-620 colon
[22] = system: OVCAR-4 ovarian
[23] = system: M19-MEL melanoma
[24] = system: UO-31 renal
[25] = system: SN12K1 renal
[26] = system: NCI-H460 lung
[27] = system: A498 renal
[28] = system: UACC-62 melanoma
[29] = system: HCT-116 colon
[30] = system: SNB-75 CNS
[31] = system: NCI/ADR-RES ovarian
[32] = system: SF-539 CNS
[33] = system: EKVX NSCLC
[34] = system: XF 498 CNS
[35] = system: DMS 114 small cell lung
[36] = system: COLO 205 colon
[37] = system: SNB-19 CNS
[38] = system: KM20L2 colon
[39] = system: RXF 393 renal
[40] = system: HOP-62 NSCLC
[41] = system: SK-OV-3 ovarian
[42] = system: MOLT-4 leukemia
[43] = system: P388/ADR leukemia
[44] = system: A549 NSCLC
[45] = system: OVCAR-3 ovarian
[46] = system: CAKI-1 renal
[47] = system: HOP-92 NSCLC
[48] = system: DMS 273 small cell lung
[49] = system: HL-60(TB) leukemia
[50] = system: P388 leukemia
[51] = system: NCI-H23 lung
[52] = system: OVCAR-5 ovarian
[53] = system: MALME-3M melanoma
[54] = system: LOX IMVI melanoma
[55] = system: NCI-H522 lung
[56] = system: SK-MEL-2 melanoma
[57] = system: OVCAR-8 ovarian

Compound C=C1CC(OC)(C(O)C(=O)N[C@H]2OCO[C@H]3C2O[C@H](C[C@@H](COC)OC)C(C)(C)C3OC)O[C@H](C)[C@@H]1C (stereo not given in full) has a TGI [1] of less than 0.00482 µM, a TGI [2] of less than 0.00482 µM and a TGI [3] of less than 0.00482 µM. The TGI [4] was less than 0.00482 µM, the TGI [5] was less than 0.00482 µM and the TGI [6] was less than 0.00482 µM. The TGI [7] was less than 0.00482 µM, the TGI [8] was less than 0.00482 µM and the TGI [9] was less than 0.00482 µM. For the same compound, the TGI [10] was less than 0.00482 µM, the TGI [11] was less than 0.00482 µM and the TGI [12] was less than 0.00482 µM. The TGI [13] was less than 0.00482 µM, the TGI [14] was less than 0.00482 µM and the TGI [15] was less than 0.00482 µM. The TGI [16] was less than 0.00482 µM, the TGI [17] was less than 0.00482 µM and the TGI [18] was less than 0.00482 µM. The TGI [19] was less than 0.00482 µM, the TGI [20] was less than 0.00482 µM and the TGI [21] was 48.2 µM. The TGI [22] was less than 0.00482 µM, the TGI [23] was less than 0.00482 µM and the TGI [24] was less than 0.00482 µM. It also gave a TGI [25] of less than 0.00482 µM, a TGI [26] of less than 0.00482 µM and a TGI [27] of less than 0.00482 µM. For the same compound, the TGI [28] was less than 0.00482 µM, the TGI [29] was less than 0.00482 µM and the TGI [30] was less than 0.00482 µM. For the same compound, the TGI [31] was less than 0.00482 µM, the TGI [32] was less than 0.00482 µM and the TGI [33] was less than 0.00482 µM. For the same compound, the TGI [34] was less than 0.00482 µM, the TGI [35] was less than 0.00482 µM and the TGI [36] was less than 0.00482 µM. For the same compound, the TGI [37] was less than 0.00482 µM, the TGI [38] was less than 0.00482 µM and the TGI [39] was less than 0.00482 µM.

CC(C)=CC1C(C(=O)O)C1(C)C (stereo not given) showed a TGI [1] greater than 750 µM, a TGI [40] greater than 750 µM and a TGI [2] greater than 750 µM. For the same compound, the TGI [3] was greater than 750 µM, the TGI [41] was greater than 750 µM and the TGI [4] was greater than 750 µM. For the same compound, the TGI [5] was greater than 750 µM, the TGI [42] was greater than 750 µM and the TGI [43] was greater than 750 µM. The TGI [6] was greater than 750 µM, the TGI [7] was greater than 750 µM and the TGI [8] was greater than 750 µM. It also gave a TGI [9] greater than 750 µM, a TGI [44] greater than 750 µM and a TGI [10] greater than 750 µM. For the same compound, the TGI [11] was greater than 750 µM, the TGI [12] was greater than 750 µM and the TGI [13] was greater than 750 µM. The TGI [45] was greater than 750 µM, the TGI [14] was greater than 750 µM and the TGI [46] was greater than 750 µM. For the same compound, the TGI [47] was greater than 750 µM, the TGI [15] was greater than 750 µM and the TGI [16] was greater than 750 µM. For the same compound, the TGI [18] was greater than 750 µM, the TGI [19] was greater than 750 µM and the TGI [20] was greater than 750 µM. For the same compound, the TGI [48] was greater than 750 µM, the TGI [49] was greater than 750 µM and the TGI [21] was greater than 750 µM. It also gave a TGI [22] greater than 750 µM, a TGI [23] greater than 750 µM and a TGI [24] greater than 750 µM. For the same compound, the TGI [25] was greater than 750 µM, the TGI [26] was greater than 750 µM and the TGI [27] was greater than 34.8 µM. For the same compound, the TGI [50] was greater than 750 µM, the TGI [28] was greater than 750 µM and the TGI [29] was greater than 750 µM. For the same compound, the TGI [51] was greater than 750 µM, the TGI [52] was greater than 750 µM and the TGI [30] was greater than 750 µM. For the same compound, the TGI [53] was greater than 750 µM, the TGI [31] was greater than 750 µM and the TGI [32] was greater than 750 µM. The TGI [33] was greater than 750 µM, the TGI [34] was greater than 75 µM and the TGI [54] was greater than 750 µM. For the same compound, the TGI [55] was greater than 750 µM, the TGI [35] was greater than 750 µM and the TGI [56] was greater than 750 µM. It also gave a TGI [57] greater than 750 µM, a TGI [36] greater than 750 µM and a TGI [37] greater than 750 µM. For the same compound, the TGI [38] was greater than 750 µM and the TGI [39] was greater than 750 µM.
